Assay results taken from the supplement of paper PMC10307832.

How the values were obtained:
Experiment in all cases: relative viability (nuclei count vs DMSO), 5 days (fraction); higher = more cells survive
Dovitinib + Bortezomib = compound: CN1CCN(c2ccc3nc(-c4c(N)c5c(F)cccc5[nH]c4=O)[nH]c3c2)CC1 [Dovitinib] + CC(C)C[C@H](NC(=O)[C@H](Cc1ccccc1)NC(=O)c1cnccn1)B(O)O [Bortezomib] (partner 0.002 µM)
In short: (§1)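 Medians of duplicate plates are given as relative viability. That measure is the nuclei count in treated wells divided by the count in vehicle wells. Counts were taken on 4× images of lung cancer cell lines in 1536-well plates, 5 days after pin-tool dosing the day after seeding with one drug alone or a fixed anchor-drug dose plus five library-drug doses (not always all listed) in √10 steps.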

Dovitinib + Navitoclax = compound: CN1CCN(c2ccc3nc(-c4c(N)c5c(F)cccc5[nH]c4=O)[nH]c3c2)CC1 [Dovitinib] + CC1(C)CCC(c2ccc(Cl)cc2)=C(CN2CCN(c3ccc(C(=O)NS(=O)(=O)c4ccc(N[C@H](CCN5CCOCC5)CSc5ccccc5)c(S(=O)(=O)C(F)(F)F)c4)cc3)CC2)C1 [Navitoclax] (partner 0.5 µM)
In short: as §1

Dovitinib + Dasatinib = compound: CN1CCN(c2ccc3nc(-c4c(N)c5c(F)cccc5[nH]c4=O)[nH]c3c2)CC1 [Dovitinib] + Cc1nc(Nc2ncc(C(=O)Nc3c(C)cccc3Cl)s2)cc(N2CCN(CCO)CC2)n1 [Dasatinib] (partner 0.075 µM)
In short: as §1

Dovitinib + Luminespib = compound: CN1CCN(c2ccc3nc(-c4c(N)c5c(F)cccc5[nH]c4=O)[nH]c3c2)CC1 [Dovitinib] + CCNC(=O)c1noc(-c2cc(C(C)C)c(O)cc2O)c1-c1ccc(CN2CCOCC2)cc1 [Luminespib] (partner 0.01 µM)
In short: as §1

Cell Line	relative viability (Dovitinib + Bortezomib; first compound 0.02 µM)	relative viability (Dovitinib + Bortezomib; first compound 0.06325 µM)	relative viability (Dovitinib + Bortezomib; first compound 0.2 µM)	relative viability (Dovitinib + Bortezomib; first compound 0.6325 µM)	relative viability (Dovitinib + Bortezomib; first compound 2 µM)	relative viability (Dovitinib + Navitoclax; first compound 0.02 µM)	relative viability (Dovitinib + Navitoclax; first compound 0.06325 µM)	relative viability (Dovitinib + Navitoclax; first compound 0.2 µM)	relative viability (Dovitinib + Navitoclax; first compound 0.6325 µM)	relative viability (Dovitinib + Navitoclax; first compound 2 µM)	relative viability (Dovitinib + Dasatinib; first compound 0.02 µM)	relative viability (Dovitinib + Dasatinib; first compound 0.06325 µM)	relative viability (Dovitinib + Dasatinib; first compound 0.2 µM)	relative viability (Dovitinib + Dasatinib; first compound 0.6325 µM)	relative viability (Dovitinib + Dasatinib; first compound 2 µM)	relative viability (Dovitinib + Luminespib; first compound 0.02 µM)	relative viability (Dovitinib + Luminespib; first compound 0.06325 µM)	relative viability (Dovitinib + Luminespib; first compound 0.2 µM)	relative viability (Dovitinib + Luminespib; first compound 0.6325 µM)	relative viability (Dovitinib + Luminespib; first compound 2 µM)
LU99A	1.15	1.08	0.987	1.05	1.32	0.78	0.787	0.747	0.774	0.727	0.508	0.448	0.572	0.517	0.46	0.243	0.221	0.27	0.282	0.254
LXF-289	0.924	1	1.02	0.935	0.968	0.909	0.929	0.945	0.941	0.858	0.201	0.206	0.263	0.253	0.266	0.722	0.683	0.737	0.677	0.663
NCI-H23	0.925	1.02	1.01	1.05	1.22	0.83	0.759	0.769	0.908	0.764	0.837	0.729	0.976	0.731	0.734	0.194	0.219	0.201	0.229	0.24
NCI-H322M	1.21	1.21	1.19	1.12	1.16	1.17	1.25	1.21	1.27	1.23	0.24	0.263	0.243	0.249	0.284	0.835	0.883	0.831	0.803	0.792
NCI-H441	0.497	0.593	0.352	0.531	0.433	0.665	0.54	0.911	0.572	0.775	0.708	0.556	0.675	0.568	0.63	0.351	0.382	0.286	0.32	0.342
NCI-H460	1.01	1.2	1.09	1.11	1.08	0.961	1.14	1.02	1.08	1.14	0.407	0.489	0.555	0.505	0.476	0.0302	0.034	0.0441	0.0303	0.0426
NCI-H520	0.527	0.725	0.63	0.488	0.348	1.17	1.21	1.09	1.03	0.905	0.165	0.188	0.235	0.179	0.218	0.218	0.219	0.192	0.201	0.212
NCI-H596	1.19	1.03	0.834	1.04	1.07	1.02	0.987	0.871	0.768	0.696	0.646	0.523	0.552	0.647	0.534	1.12	1.11	0.942	1.16	0.835
NCI-H647	0.993	1.08	1.13	0.897	0.667	0.958	1.04	1.14	1.04	0.949	0.151	0.152	0.209	0.171	0.21	0.16	0.192	0.127	0.183	0.179
NCI-H727	0.937	0.733	0.92	0.845	1.27	0.497	0.491	0.421	0.468	0.414	0.482	0.393	0.422	0.395	0.385	0.272	0.373	0.285	0.322	0.373
NCI-H838	0.639	0.699	0.851	0.76	0.758	1.11	1.19	1.17	1.22	1.11	0.293	0.269	0.31	0.273	0.288	0.277	0.307	0.349	0.25	0.289
NCI-H1355	1.31	1.19	1.17	1.2	1.42	0.917	0.958	1.04	0.985	1.08	0.678	0.673	0.723	0.744	0.771	0.716	0.781	0.829	0.827	0.68
NCI-H1437	0.471	0.575	0.493	0.49	0.523	1.01	1.05	1.05	1.05	1.07	0.414	0.397	0.353	0.39	0.452	1.07	1.12	1.13	0.985	1.07
NCI-H1650	0.209	0.206	0.201	0.189	0.203	1.12	1.2	1.25	1.05	1.08	0.335	0.26	0.365	0.348	0.384	0.199	0.192	0.199	0.189	0.19
NCI-H1651	0.957	0.961	1.03	1.02	0.91	1.09	1.04	1.03	1.02	1.03	0.388	0.43	0.484	0.469	0.486	0.901	0.902	0.996	0.752	0.683
NCI-H1666	1	0.87	0.968	0.792	0.842	0.835	0.966	0.887	0.901	1.03	0.767	0.839	0.845	0.799	0.762	1.02	0.991	1.07	0.997	0.972
